Experimental data published in ChEMBL document CHEMBL5154690, “Discovery of a tricyclic farnesoid X receptor agonist HEC96719, a clinical candidate for treatment of non-alcoholic steatohepatitis” (Eur J Med Chem, 2022).
Calls of active or inactive are those of the source. No cut-off for these calls is given here.

Columns and labels:
Bile acid receptor = molecular target: T1, Bile acid receptor (Homo sapiens, UniProt Q96RI1); experiment: Agonist activity at FXR-LBD (unknown origin) assessed as induction of coactivator SRC-1 peptide recruitment measured by TR-FRET assay
T1 sequence (Q96RI1 whole entry): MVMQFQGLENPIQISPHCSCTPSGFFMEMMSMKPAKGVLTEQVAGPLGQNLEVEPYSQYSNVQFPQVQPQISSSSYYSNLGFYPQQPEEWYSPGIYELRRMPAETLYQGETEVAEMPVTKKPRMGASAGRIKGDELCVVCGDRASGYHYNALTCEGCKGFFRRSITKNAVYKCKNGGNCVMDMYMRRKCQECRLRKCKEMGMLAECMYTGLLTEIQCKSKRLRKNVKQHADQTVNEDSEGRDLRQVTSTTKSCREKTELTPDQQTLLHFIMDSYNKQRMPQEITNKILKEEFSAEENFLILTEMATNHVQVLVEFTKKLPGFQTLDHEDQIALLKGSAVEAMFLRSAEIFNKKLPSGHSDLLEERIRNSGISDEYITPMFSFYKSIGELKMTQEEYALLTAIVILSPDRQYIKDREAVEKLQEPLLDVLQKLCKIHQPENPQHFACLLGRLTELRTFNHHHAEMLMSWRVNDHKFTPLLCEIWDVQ

Mus musculus [1] = experiment: Antifibrotic activity in C57BL/6 mouse model of CCI4-induced liver fibrosis assessed as decrease in serum TBIL level at 1 mg/kg, po administered once daily for 4 weeks; assay type: functional, organism-based
[2] = Ratio of drug level in kidney to plasma in male Sprague-Dawley rat at 4.5 mg/kg, po administered as C14-lableled compound and measured at 0.25 to 6 hrs; assay type: ADME, organism-based; details: other tissue, time 0.25-6 hrs
[3] = Volume of distribution at steady state in male Beagle dog at 1 mg/kg, iv measured by LC-MS/MS analysis; assay type: ADME, organism-based, Canis lupus familiaris; details: in vivo, read-out: Vdss
[4] = molecular target: T2, Peroxisome proliferator-activated receptor gamma (Homo sapiens, UniProt P37231); experiment: Agonist activity at PPARgamma (unknown origin)
T2 sequence (P37231 whole entry): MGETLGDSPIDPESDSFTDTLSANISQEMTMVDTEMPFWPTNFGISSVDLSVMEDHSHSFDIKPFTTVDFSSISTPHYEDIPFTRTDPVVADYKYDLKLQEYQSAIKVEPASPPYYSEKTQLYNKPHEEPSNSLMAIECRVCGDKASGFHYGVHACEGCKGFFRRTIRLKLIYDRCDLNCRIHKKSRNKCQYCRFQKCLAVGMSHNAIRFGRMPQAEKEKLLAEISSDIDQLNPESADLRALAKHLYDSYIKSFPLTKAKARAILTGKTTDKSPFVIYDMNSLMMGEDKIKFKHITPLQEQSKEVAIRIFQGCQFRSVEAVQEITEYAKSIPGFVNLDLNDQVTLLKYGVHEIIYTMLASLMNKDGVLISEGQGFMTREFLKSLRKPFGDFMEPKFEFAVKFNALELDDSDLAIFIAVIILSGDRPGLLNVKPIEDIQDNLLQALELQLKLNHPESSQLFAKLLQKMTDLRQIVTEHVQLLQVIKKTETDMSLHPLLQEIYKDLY

[5] = molecular target: T3, Bile acid receptor (Rattus norvegicus) (UniProt Q62735); experiment: In vivo activation of FXR in male Sprague-Dawley rat assessed as fold increase in liver BSEP level at 5 mg/kg, po administered as single dose measured at 1 hr by RT-qPCR assay; assay type: functional, organism-based
T3 sequence (whole entry): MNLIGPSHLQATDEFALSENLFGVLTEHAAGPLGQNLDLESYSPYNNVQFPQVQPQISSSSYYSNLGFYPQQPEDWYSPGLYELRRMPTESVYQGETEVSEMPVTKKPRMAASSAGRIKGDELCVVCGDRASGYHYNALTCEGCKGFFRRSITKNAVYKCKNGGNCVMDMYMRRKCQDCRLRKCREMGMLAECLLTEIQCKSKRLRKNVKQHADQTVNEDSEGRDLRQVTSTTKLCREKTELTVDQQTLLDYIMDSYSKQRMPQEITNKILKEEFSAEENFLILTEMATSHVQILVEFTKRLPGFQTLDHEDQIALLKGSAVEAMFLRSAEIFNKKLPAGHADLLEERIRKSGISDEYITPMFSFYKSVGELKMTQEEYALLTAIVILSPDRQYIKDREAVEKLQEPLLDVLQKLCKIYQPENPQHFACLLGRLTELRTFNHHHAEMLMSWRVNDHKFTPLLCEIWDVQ

[6] = molecular target: T4, G-protein coupled bile acid receptor 1 (Homo sapiens) (UniProt Q8TDU6); experiment: Agonist activity in human GPBAR1 assessed as increase in intracellular cAMP level relative to control; assay type: functional, cell-based
T4 sequence (whole entry): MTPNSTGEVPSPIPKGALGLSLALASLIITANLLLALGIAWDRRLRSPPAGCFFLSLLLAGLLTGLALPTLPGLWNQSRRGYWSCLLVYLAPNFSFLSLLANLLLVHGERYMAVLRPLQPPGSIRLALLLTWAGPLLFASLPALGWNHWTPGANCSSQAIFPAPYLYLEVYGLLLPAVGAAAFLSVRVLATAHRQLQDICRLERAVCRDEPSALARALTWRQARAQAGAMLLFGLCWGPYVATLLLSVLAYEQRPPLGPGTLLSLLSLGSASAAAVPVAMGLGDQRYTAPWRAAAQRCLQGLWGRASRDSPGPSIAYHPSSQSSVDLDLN

[7] = Ratio of drug level in heart to plasma in male Sprague-Dawley rat at 4.5 mg/kg, po administered as C14-lableled compound and measured at 0.25 to 6 hrs; assay type: ADME, organism-based; details: other tissue, time 0.25-6 hrs
[8] = Half-life in male C57BL/6 mouse at 5 mg/kg, po measured by LC-MS/MS analysis; assay type: ADME, organism-based; details: in vivo
[9] = molecular target: T3, Bile acid receptor (Rattus norvegicus); experiment: In vivo activation of FXR in male Sprague-Dawley rat assessed as fold increase in FGF15 level at 5 mg/kg, po administered once daily for 14 days measured at 6 hrs by ELISA; assay type: functional, organism-based; details: time 14.0 day
[10] = Drug recovery in spleen of male Sprague-Dawley rat at 4.5 mg/kg, po administered as C14-lableled compound and assessed as radioactivity and measured at 0.25 hrs; assay type: ADME, organism-based; details: in vivo
[11] = Drug recovery in lung of male Sprague-Dawley rat at 4.5 mg/kg, po administered as C14-lableled compound and assessed as radioactivity and measured at 1 hr; assay type: ADME, organism-based; details: in vivo
[12] = Volume of distribution at steady state in male C57BL/6 mouse at 2 mg/kg, iv measured by LC-MS/MS analysis; assay type: ADME, organism-based; details: in vivo, read-out: Vdss
[13] = Drug metabolism in bile of Sprague-Dawley rat assessed as production of toxic metabolites at 4.5 mg/kg, po administered as C14-lableled compound with single dose; assay type: ADME, organism-based; details: in vivo
[14] = Clearance in male Sprague-Dawley rat at 1 mg/kg, iv measured by LC-MS/MS analysis; assay type: ADME, organism-based; details: in vivo
[15] = Drug recovery in ileum of male Sprague-Dawley rat at 4.5 mg/kg, po administered as C14-lableled compound and assessed as radioactivity and measured at 0.25 hrs; assay type: ADME, organism-based; details: in vivo
Mus musculus [16] = experiment: Anti-NASH activity against high fat (HF) diet-induced nonalcoholic steatohepatitis in leptin-deficient ob/ob mouse model assessed as reduction in NASH activity score (NAS) at 0.3 to 1 mg/kg, po administered once daily from week 5 to 10; assay type: functional, organism-based; details: dose 0.3-1 mg/kg

In the case of O=C(O)c1ccc2c(c1)Oc1ccc(OCc3c(-c4c(Cl)cccc4Cl)noc3C3CC3)nc1C1(CC1)C2, the EC50 (Bile acid receptor) is reported as 1.37 nM, the Activity (Mus musculus [1]) is reported as “Active” and the Ratio [2] is reported as 1.8. It also gave a Vd [3] of 1.12 L/kg, an EC50 [4] of over 10000 nM and a fold change (FC) [5] of 2. The Activity [6] was 29%, the Ratio [7] was 1 and the half-life [8] was 1.06 h. The fold change (FC) [9] was 18, the Drug recovery [10] was 192 ngequiv/g and the Drug recovery [11] was 814 ngequiv/g. The Vd [12] was 3.83 L/kg, the Drug metabolism [13] was “Metabolite_Notdetected” and the clearance [14] was 35.3 mL/min/kg. The Drug recovery [15] was 606 ngequiv/g and the Activity (Mus musculus [16]) was “Active”.
